One compound from article PMC10527514 (Gastroenterology, 2023) can be followed below.

What all share (type): cell-based
In one assay the target is GPR84 (Homo sapiens, UniProt Q9NQS5). Briefly: Hit Hunter cAMP assay in cAMP Hunter cells.
The target of the next assay is T1, PPARα (Homo sapiens, UniProt Q07869).
T1 sequence (Q07869 1-468): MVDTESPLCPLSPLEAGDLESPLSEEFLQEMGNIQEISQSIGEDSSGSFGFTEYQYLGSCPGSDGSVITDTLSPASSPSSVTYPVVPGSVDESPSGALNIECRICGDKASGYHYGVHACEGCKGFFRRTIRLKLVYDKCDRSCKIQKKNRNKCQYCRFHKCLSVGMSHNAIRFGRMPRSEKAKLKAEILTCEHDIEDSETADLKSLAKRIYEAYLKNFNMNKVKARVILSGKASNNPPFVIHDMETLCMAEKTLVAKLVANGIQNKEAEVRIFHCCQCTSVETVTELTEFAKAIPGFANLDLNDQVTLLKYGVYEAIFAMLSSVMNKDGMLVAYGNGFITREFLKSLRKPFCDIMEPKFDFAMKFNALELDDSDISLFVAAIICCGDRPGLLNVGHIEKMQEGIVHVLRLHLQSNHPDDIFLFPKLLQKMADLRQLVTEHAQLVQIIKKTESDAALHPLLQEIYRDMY
The assay is described as follows: PathHunter nuclear hormone receptor cell assay, chemiluminescence.

The target of the next assay is T2, PPARγ (Homo sapiens, UniProt P37231).
T2 sequence (P37231 1-505): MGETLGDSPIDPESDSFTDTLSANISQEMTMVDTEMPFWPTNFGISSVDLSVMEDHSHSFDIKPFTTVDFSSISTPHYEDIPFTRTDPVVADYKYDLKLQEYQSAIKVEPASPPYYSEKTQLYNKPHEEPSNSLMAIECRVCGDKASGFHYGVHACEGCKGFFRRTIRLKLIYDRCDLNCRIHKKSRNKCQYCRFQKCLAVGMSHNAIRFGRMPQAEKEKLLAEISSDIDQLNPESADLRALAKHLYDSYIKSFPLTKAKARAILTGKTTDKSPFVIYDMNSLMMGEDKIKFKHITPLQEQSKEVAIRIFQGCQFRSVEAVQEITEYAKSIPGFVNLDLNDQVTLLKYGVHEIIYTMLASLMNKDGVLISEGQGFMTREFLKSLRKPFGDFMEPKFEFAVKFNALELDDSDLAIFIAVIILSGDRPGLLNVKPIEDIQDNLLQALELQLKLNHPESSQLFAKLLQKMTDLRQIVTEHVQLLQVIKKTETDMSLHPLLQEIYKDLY
The assay is described as above.

Chain of GPR84 (Q9NQS5 whole entry): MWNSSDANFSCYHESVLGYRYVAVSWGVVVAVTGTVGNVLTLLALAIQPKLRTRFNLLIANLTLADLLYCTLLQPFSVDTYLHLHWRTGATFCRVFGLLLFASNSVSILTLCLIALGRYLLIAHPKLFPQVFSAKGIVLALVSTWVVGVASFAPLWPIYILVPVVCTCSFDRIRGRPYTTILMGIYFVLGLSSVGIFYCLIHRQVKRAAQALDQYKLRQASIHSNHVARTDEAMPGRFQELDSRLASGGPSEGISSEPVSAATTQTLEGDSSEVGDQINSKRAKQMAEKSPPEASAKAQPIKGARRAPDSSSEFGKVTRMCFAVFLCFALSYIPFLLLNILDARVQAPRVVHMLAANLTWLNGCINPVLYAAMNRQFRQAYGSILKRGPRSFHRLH

On to `CCCCCOc1cccc(C(=O)O)c1C` [SEFA-6179], for which the EC50 on GPR84 was 12 µM; on PPARα, 4.4 µM; at PPARγ, 40 µM.
